From article PMC6720511, “Synthesis and biological evaluation of novel N-(piperazin-1-yl)alkyl-1H-dibenzo[a,c]carbazole derivatives of dehydroabietic acid as potential MEK inhibitors” (Journal of Enzyme Inhibition and Medicinal Chemistry, 2019)

Columns and labels:
Assay type in all cases: cell-based, human
HepG2 cells [1] = experiment: Annexin V-FITC/PI dual staining assay; conditions: HepG2, 2 µM (as printed in text), 48 h
Description: The extent of apoptosis was quantitatively measured using Annexin V-FITC/PI dual staining assay. HepG2 cells were seeded into a six-well plate at 5 × 10^5 cells per well in 10% foetal calf serum (FBS)-DMEM into six-well plates and treated with different concentrations of the indicated compound 10g for 48 h. The cells were detached with 0.25% trypsin, washed with ice-cold PBS for twice and then resuspended in 1 × Binding buffer (0.1 M Hepes/NaOH (pH 7.4), 1.4 M NaCl, 25 mM CaCl2). The cells were stained with 5 µL of Annexin V-FITC and 5 µL of PI (propidium iodide) to each tube. The cells were gently vortexed and incubated in the dark at room temperature for 15 min and then keep them at 4 °C. The samples were analysed by a flow cytometer (Becton-Dickinson FACSCalibur, NJ, USA) and data were analysed using the FlowJo software (Becton-Dickinson & Co, Totowa, NJ, USA).

[2] = Cell death inhibition assay; conditions: human, HepG2 cells, 10g alone, 10 µM, read-out: relative cell viability of HepG2 cells
Description: Figure 6. Compound 10g induced oncosis and apoptosis of HepG2 cells. (a) PD150606 and Z-VAD-FMK partially reversed compound 10g-induced cell death. HepG2 cells were incubated with PD150606, Z-VAD-FMK or Necrostatin-1 at indicated concentration for 24 h alone or in combination with compound 10g at indicated concentration for 24 h. (b) Compound 10g induced the degradation of α-tubulin and β-actin, and activated oncosis marker calpain-1 autolysis from the 80 kDa event to 76 kDa event in western blot analysis. *, p < 0.01; **, p < 0.01; #, p < 0.01; &, p < 0.001. (c) Compound 10g induced the upregulation of apoptotic protein Bax, caspase-3, caspase-9 and plasmic cytochrome c levels, and the downregulation of antiapoptotic protein Bcl-2 level. *, p < 0.001; **, p < 0.01; #, p < 0.01; and p < 0.01.

HepG2 cells [3] = experiment: Cell cycle analysis (PI staining, flow cytometry); conditions: HepG2, 2 µM (as printed in text), 48 h
Description: Cell cycle distributions in HepG2 cells were determined through propidium iodide (PI) staining and analysed by flow cytometry. HepG2 cells were seeded into a six-well plate at 5 × 10^5 cell/mL and treated with different concentrations of compound 10g for 48 h. After treatment, cells were detached with 0.25% trypsin, harvested by centrifugation, washed twice with ice-cold PBS and then fixed and permeabilised with ice-cold 70% ethanol at 4 °C overnight. Ethanol was removed and the cells were washed twice with ice-cold PBS. After this, the cells were treated with 100 µL of RNase (100 µg/mL) at 37 °C for 30 min, followed by incubation with 400 µl of DNA staining solution (PI) (1 mg/mL) in the dark at 4 °C for 30 min. The samples were analyzed by a flow cytometer (Becton-Dickinson FACSCalibur, NJ, USA) and data were analysed using the FlowJo software (Becton-Dickinson & Co, Totowa, NJ, USA).

pERK1/2 = experiment: Western blot of ERK and pERK in HepG2 cells; conditions: 48 h
Description: HepG2 cells were seeded at a density of 5 × 10^6 cells per well and attached for 8 h, and then treated with different concentrations of compound 10g for 48 h. After the treatment, the cells were harvested and washed twice with PBS. The harvested cells were lysed with radio-immunoprecipitation assay (RIPA) lysis buffer (Beyotime Biotech., Nantong, China) with 1% cocktail (Sigma-Aldrich, USA). Whole-cell protein lysates were prepared and centrifuged at 12,000 rpm for 10 min at 4 °C. The total proteins were determined using Bradford reagent (Bio-Rad Laboratories, Inc., USA). Exactly 40 µg of protein per lane was separated through sodium dodecyl sulfate-polyacrylamide gel electrophoresis and then transferred onto a polyvinylidene difluoride membrane (Millipore, Bedford, MA, USA). The membranes were incubated with each antibody and detected through immunoblot analysis. All of the antibodies were purchased from Cell signaling Technology, Inc. (Boston, MA, USA) and diluted in accordance with the manufacturer’s instruction. Proteins were visualized using a C-Digit® imaging system (LI-COR Biosciences, Lincoln, NE, USA).

[4] = system: normal hepatocyte cell line (QSG-7701); experiment: MTT cytotoxic assay on normal hepatocytes; conditions: Homo sapiens, QSG7701, 48 h, mean value ± SD
Description: Three human hepatocarcinoma cell lines (SMMC-7721, HepG2 and Hep3B) and normal hepatocyte cell line (QSG-7701) were maintained in Dulbecco Modified Eagle Medium (DMEM) containing 4.0 mM L-Glutamine and 4500 mg/l Glucose supplemented with 10% (v/v) foetalbovine serum (FBS) and 100 unites/mL penicillin/streptomycin at 37 °C in humidified atmosphere of 5% CO2 and 95% air.
The in vitro cytotoxic activities of the carbazole derivatives of DHA were evaluated against three human hepatocarcinoma cell lines (SMMC-7721, HepG2 and Hep3B) and a normal human hepatocyte cell line (QSG-7701) via the MTT colorimetric method. Briefly, SMMC-7721, HepG2, Hep3B and QSG-7701 cells were harvested at log phase of growth and seeded in 96-well plates (100 µL/well at a density of 2 × 10^5 cells/mL). After 24 h incubation at 37 °C and 5% CO2 to allow cell attachment, cultures were exposed to various concentrations of the isolated compounds for 48 h. Finally, MTT solution (2.5 mg/mL in PBS) was added (40 µL/well). Plates were further incubated for 4 h at 37 °C, and the formazan crystals formed were dissolved by adding 150 µL/well of DMSO. Absorption at 570 nm was measured with an ELISA plate reader. […] Doxorubicin was co-assayed as positive control.

HepG2 cells [5] = experiment: Lactate dehydrogenase (LDH) leakage assay; conditions: HepG2, 5 µM, 24 h
Description: The cell membrane integrity was determined by LDH leakage assay by using a LDH assay kit (Beyotime, China). In brief, HepG2 cells were plated on 96-well plates at the density of 5 × 10^3 cells per well and allowed to attach overnight. After being incubated with compound 10g for 24 h, the supernatants were collected and centrifuged at the speed of 1000 rpm and were subjected to LDH detection as the description in the manual. The absorbance at 490 nm was measured by a Cytation 3 Cell Imaging Multi-Mode Reader (BioTek Instruments, Inc., Winooski, VT, USA).

CCOc1ccc2c(c1)c1c(n2CCN2CCNCC2)-c2cc(C(C)C)ccc2C2(C)CCCC(C)(C(=O)OC)C12 (stereo not shown) [Compound 10g, 2,3,4,4a,9,13c-Hexahydro-12-ethoxy-7-isopropyl-1,4a-dimethyl-9–(2-(piperazin-1-yl)ethyl)-1H-dibenzo[a,c]carbazole-1-carboxylic acid methyl ester]
percentage of early and late apoptotic cells (HepG2 cells [1]): 60.02%
viability at 24 h, 10 µM [2]: 1.22%
G0/G1 phase cells (HepG2 cells [3]): 55.37%
percentage of cells in G2/M phase (HepG2 cells [3]): 20.09%
expression level of pERK1/2, % of the control group (pERK1/2; 0.1 µM): 88.8%
expression level of pERK1/2, % of the control group (pERK1/2; 0.5 µM): 43.8%
expression level of pERK1/2, % of the control group (pERK1/2; 1.0 µM): 34.2%
expression levels of ERK1/2 (in words) (pERK1/2; 0.1-1.0 µM): decreased slightly
IC50 [4]: 12.5 ± 0.58 µM
relative LDH leakage level (HepG2 cells [5]): 93.03%
